The source of these data is article PMC11409059, “Substitution of Glu378 in EF-Tu disrupts binding to KKL-55” (microPublication Biology, 2024).

The target in this test is EF-Tu (6His-tagged EF-Tu, tufA) (Escherichia coli, UniProt P0CE47, E379A). As to the kind of experiment: biochemical.

Usually Kd stands for the free concentration of one partner at which half of the binding sites on the other are occupied at equilibrium, for simple one-to-one binding. The low end stands for a tighter complex, the high end for a looser complex.

Structures are written as SMILES.

`CCCn1nnnc1NC(=O)c1cccc(Cl)c1` [KKL-55]: the Kd came out at 2400 nM.
